Measured values as given in ChEMBL document CHEMBL2046323, “Synthesis, structure-activity relationship studies, and X-ray crystallographic analysis of arylsulfonamides as potent carbonic anhydrase inhibitors” (J Med Chem, 2012).

Legend:
Carbonic anhydrase 9 = Carbonic anhydrase 9 (Homo sapiens, UniProt Q16790)
Carbonic anhydrase 1 = Carbonic anhydrase 1 (Homo sapiens, UniProt P00915)
Carbonic anhydrase 2 = Carbonic anhydrase 2 (Homo sapiens, UniProt P00918)
Carbonic anhydrase 7 = Carbonic anhydrase 7 (Homo sapiens, UniProt P43166)
Carbonic anhydrase 14 = Carbonic anhydrase 14 (Homo sapiens, UniProt Q9ULX7)
Chain of Carbonic anhydrase 14 (Q9ULX7 whole entry): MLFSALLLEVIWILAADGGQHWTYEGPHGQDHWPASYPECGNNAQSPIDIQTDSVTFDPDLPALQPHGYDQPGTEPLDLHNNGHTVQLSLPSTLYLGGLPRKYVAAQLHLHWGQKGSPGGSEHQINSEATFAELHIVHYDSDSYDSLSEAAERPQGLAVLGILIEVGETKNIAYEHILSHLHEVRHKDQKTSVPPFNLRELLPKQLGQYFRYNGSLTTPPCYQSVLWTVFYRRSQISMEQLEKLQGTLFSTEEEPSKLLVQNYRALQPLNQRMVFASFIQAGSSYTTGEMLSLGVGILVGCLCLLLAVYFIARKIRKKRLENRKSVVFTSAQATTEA

Chain of Carbonic anhydrase 1 (P00915 whole entry): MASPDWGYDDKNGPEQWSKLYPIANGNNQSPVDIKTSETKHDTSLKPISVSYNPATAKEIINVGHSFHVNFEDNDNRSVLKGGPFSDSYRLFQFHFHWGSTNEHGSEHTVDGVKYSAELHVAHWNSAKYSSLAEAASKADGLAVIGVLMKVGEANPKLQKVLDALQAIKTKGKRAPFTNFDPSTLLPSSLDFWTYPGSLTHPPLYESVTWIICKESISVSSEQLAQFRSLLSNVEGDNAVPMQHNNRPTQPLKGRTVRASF
Chain of Carbonic anhydrase 7 (P43166 whole entry): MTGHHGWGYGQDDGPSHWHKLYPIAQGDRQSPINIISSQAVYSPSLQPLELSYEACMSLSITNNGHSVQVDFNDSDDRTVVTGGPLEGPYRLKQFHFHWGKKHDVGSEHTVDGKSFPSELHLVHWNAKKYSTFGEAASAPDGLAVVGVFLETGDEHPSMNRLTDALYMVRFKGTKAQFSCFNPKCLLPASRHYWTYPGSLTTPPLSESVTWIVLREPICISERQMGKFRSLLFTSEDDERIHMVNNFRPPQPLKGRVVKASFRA

Structure (SMILES)	Ki (Carbonic anhydrase 9)	further results
COc1ccc(CCNC(=O)c2ccc(S(N)(=O)=O)cc2)cc1OC	0.0038 µM	
COc1cc2c(cc1OC)C(c1ccc(S(N)(=O)=O)cc1)=NCC2	0.21 µM	
COc1cc2c(cc1OC)C(c1ccc(S(N)(=O)=O)cc1)NCC2 (configuration not stated)	0.13 µM	
COc1cc2c(cc1OC)C(c1ccc(S(N)(=O)=O)cc1)N(S(N)(=O)=O)CC2 (configuration not stated)	0.076 µM	
COc1cccc(CCNC(=O)c2ccc(S(N)(=O)=O)cc2)c1	0.0065 µM	
CCOc1cccc(CCNC(=O)c2ccc(S(N)(=O)=O)cc2)c1	0.0081 µM	
CCCOc1cccc(CCNC(=O)c2ccc(S(N)(=O)=O)cc2)c1	0.0083 µM	
NS(=O)(=O)c1ccc(C(=O)NCCc2cccc(O)c2)cc1	0.0417 µM	
COc1ccc2c(c1)CCN=C2c1ccc(S(N)(=O)=O)cc1	0.0183 µM	
CCOc1ccc2c(c1)CCN=C2c1ccc(S(N)(=O)=O)cc1	0.0072 µM	Ki (Carbonic anhydrase 1): 1.05 µM; Ki (Carbonic anhydrase 2): 0.0875 µM; Ki (Carbonic anhydrase 7): 0.0065 µM; Ki (Carbonic anhydrase 14): 0.0179 µM
CCCOc1ccc2c(c1)CCN=C2c1ccc(S(N)(=O)=O)cc1	0.0161 µM	Ki (Carbonic anhydrase 1): 0.0831 µM; Ki (Carbonic anhydrase 2): 0.0088 µM; Ki (Carbonic anhydrase 7): 0.008 µM; Ki (Carbonic anhydrase 14): 0.0087 µM
NS(=O)(=O)c1ccc(C2=NCCc3cc(O)ccc32)cc1	0.0515 µM	
NS(=O)(=O)c1ccc(C2NCCc3cc(O)ccc32)cc1 (configuration not stated)	0.0683 µM	
COc1ccc2c(c1)CCN(S(N)(=O)=O)C2c1ccc(S(N)(=O)=O)cc1 (configuration not stated)	0.0065 µM	
CCOc1ccc2c(c1)CCN(S(N)(=O)=O)C2c1ccc(S(N)(=O)=O)cc1 (configuration not stated)	0.0521 µM	
NS(=O)(=O)c1ccc(C2c3ccc(O)cc3CCN2S(N)(=O)=O)cc1 (configuration not stated)	0.0079 µM	
COc1ccc2c(c1)CCNC2c1ccc(S(N)(=O)=O)cc1 (racemic)	0.0154 µM	
CCOc1ccc2c(c1)CCNC2c1ccc(S(N)(=O)=O)cc1 (racemic)	0.0092 µM	
CCCOc1ccc2c(c1)CCNC2c1ccc(S(N)(=O)=O)cc1 (racemic)	0.0092 µM	
